Assay results from patent EP0097468A2, “Thio-naphthotriazoles, methods for producing them and their use in treating allergic diseases” (BEECHAM GROUP PLC, priority 1982, dated 1984).

Test system: rat PCA
Experiment: Passive cutaneous anaphylaxis (PCA) in rats
Assay type: in vivo
Conditions: iv, PBS with NaHCO3, time 0 mins before antigen challenge
Experimental: Serum containing heat labile homocytotropic antibody was raised in rats to crystallised ovalbumin (Grade 3 Sigma) by the Method of I.Mota (Immunology 7, 681 (1964)) using Bordetella pertussis vaccine ([…] Burroughs Welcome) as adjuvant.
Passive cutaneous anaphylaxis (PCA) was carried out by a method based on that of Ovary and Bier, (Proc. Soc. Exp. Bio. Med., 81, 584 (1952)) as modified by Goose and Blair (Immunology, 16, 749 (1969)) Male Sprague Dawley rats 230-340 gm were given 0.1 ml of each of six two fold serial dilutions of pooled antiserum in 0.9% saline (Polyfusor Boots) injected intradermally into separate sites on their shaved backs. 72 hours later the rats were challenged by intravenous injection of 0.3 ml of a 1% solution of ovalbumin in isotonic saline buffered with 0.05M, pH 7.2 Sorenson'Buffer (Bactohaemagglutination buffer Difco Laboratories), mixed with 0,2 ml of a 5% solution of Pontamine Sky Blue (6 BX C.l. 24410 Raymond A Lamb) in isotonic saline. The rats were killed after 20 minutes and the diameter of the blue wheals at the antibody injection sites was measured on the outer surface of the skin. The starting dilution of the serum was adjusted so that there was no response, after challenge, at the injection site of the highest dilution and a maximum response at the lowest dilutions. Typically, six twofold serial dilutions of the serum from 1/4 to 1/128 were used.
Compounds were tested for their ability to reduce the diameter of the wheals at those intradermal sites which in control animals gave less than maximum response. Each dose of the compounds was administered to six rats at a measured time prior to intravenous challenge with ovalbumin. Control groups of six rats were given the same volume (0.2 ml: 100g-^1) of carrier fluid at the same time prior to the challenge.
The results were calculated as follows: % inhibition of PCA = 100 (1 - a/b) where a = the sum of the diameters of the wheals produced in the test animal at the sites of antibody dilutions as used in control groups and b = the mean sum of the diameters of the wheals produced in the control group of animals at those antibody sites where at least five out of six of the animals gave less than maximum response. A typical variation in the control group of animals was SEM± 6%.

| SMILES | inhibition in vivo at 0.5 mg/kg [%] | inhibition in vivo at 1 mg/kg [%] | inhibition in vivo at 10 mg/kg [%] | further results |
| --- | --- | --- | --- | --- |
| CSc1cccc2c1C(=O)c1nn[nH]c1C2=O [Example 1, 4,9-Dihydro-4,9-dioxo-5-methylthio-lH-naphtho [2,-3-d]-v-triazole] | 35 | 68 | – | inhibition in vivo at 0.25 mg/kg: 23% |
| CCSc1cccc2c1C(=O)c1nn[nH]c1C2=O [Example 2, 4,9-Dihydro-4,9-dioxo-5-ethylthio-1H-naphtho[2,3-d]-v-triazole] | 40 | – | – | inhibition in vivo at 0.125 mg/kg: 31%; inhibition in vivo at 0.25 mg/kg: 27% |
| C[S+]([O-])c1cccc2c1C(=O)c1nn[nH]c1C2=O (stereo not shown) [Example 3, 4,9-Dihydro-4,9-dioxo-5-methylsulphinyl-lH-naphtho-[2,3-d]-v-triazole] | 84 | – | – | inhibition in vivo at 0.0625 mg/kg (0.0625 mg/kg): 35%; inhibition in vivo at 0.125 mg/kg: 56%; inhibition in vivo at 0.25 mg/kg: 79% |
| CS(=O)(=O)c1cccc2c1C(=O)c1nn[nH]c1C2=O [Example 4, 4,9-Dihydro-4,9-dioxo-5-methylsulphonyl-lH-naphtho-[2,3-d]-v-triazole] | – | 44 | 88 | – |
| CC[S+]([O-])c1cccc2c1C(=O)c1nn[nH]c1C2=O (stereo not shown) [Example 5, 4,9-dihydro-4,9-dioxo-5-ethysulphinyl-1H-naphtho[2,3-d]-v-triazole] | 39 | – | – | inhibition in vivo at 0.1 mg/kg: 65% |
| CCS(=O)(=O)c1cccc2c1C(=O)c1nn[nH]c1C2=O [Example 6, 4,9-Dihydro-4,9-dioxo-5-ethylsulphonyl-lH-naphtho[2,3-dl-v-triazole] | – | 39 | 82 | – |
| CCCSc1cccc2c1C(=O)c1nn[nH]c1C2=O [Example 7, 4,9-Dihyciro-4,9-dioxo-5-propylthio-1H-naphtho[2,3-d]-y-triazole] | 68 | – | – | inhibition in vivo at 5 mg/kg: 88% |
| CCC[S+]([O-])c1cccc2c1C(=O)c1nn[nH]c1C2=O (stereo not shown) [Example 8, 4,9-Dihydro-4,9-dioxo-5-propylsulphinyl-1H-naphtho[2,3-d] -v-triazole] | 88 | – | – | inhibition in vivo at 0.1 mg/kg: 74% |
| CCCS(=O)(=O)c1cccc2c1C(=O)c1nn[nH]c1C2=O [Example 9, 4,9-Dihydro-4,9-dioxo-5-propylsulphonyl-1H-naphtho[2,3-d] -v-triazole] | – | 51 | 87 | – |
| CSc1c(C)c(C)cc2c1C(=O)c1nn[nH]c1C2=O [Example 10, 6,7-Dimethyl-4,9-dihydro-4,9-dioxo-5-methylthio-1H-naphtho[2,3-d]-v-triazole] | 71 | – | – | inhibition in vivo at 5 mg/kg: 94% |
| Cc1cc2c(c([S+](C)[O-])c1C)C(=O)c1nn[nH]c1C2=O (stereo not shown) [Example 11, 6,7-Dimethyl-4,9-dihydro-4,9-dioxo-5-methylsulphinyl-1H-naphtho [2,3-d]-v-triazole] | 88 | – | – | inhibition in vivo at 0.1 mg/kg: 50% |
| Cc1cc2c(c(S(C)(=O)=O)c1C)C(=O)c1nn[nH]c1C2=O [Example 12, 6,7-Dimethyl-4,9-dihydro-4,9-dioxo-5-methylsulphonyl-1H-na^phtho [2,3-d]-v-triazole] | – | 92 | 92 | – |
